Measured values from ChEMBL document CHEMBL1909046, “DrugMatrix in vitro pharmacology data”.

What was measured:
[1] = biological target: Beta-1 adrenergic receptor (Homo sapiens, UniProt P08588); assay: DRUGMATRIX: Adrenergic beta1 radioligand binding (ligand: [125I] Cyanopindolol); type: cell membranes, CHO-K1, Membrane; conditions: cho-k1; Not Active = under 50% inhibition at 10 µM
Endothelin-1 receptor = biological target: T1, Endothelin-1 receptor (Homo sapiens, UniProt P25101); type: cell membranes, Membrane; conditions: cho-k1; note: in other assays of this panel Not Active means under 50% inhibition at 10 µM
T1 sequence (P25101 whole entry): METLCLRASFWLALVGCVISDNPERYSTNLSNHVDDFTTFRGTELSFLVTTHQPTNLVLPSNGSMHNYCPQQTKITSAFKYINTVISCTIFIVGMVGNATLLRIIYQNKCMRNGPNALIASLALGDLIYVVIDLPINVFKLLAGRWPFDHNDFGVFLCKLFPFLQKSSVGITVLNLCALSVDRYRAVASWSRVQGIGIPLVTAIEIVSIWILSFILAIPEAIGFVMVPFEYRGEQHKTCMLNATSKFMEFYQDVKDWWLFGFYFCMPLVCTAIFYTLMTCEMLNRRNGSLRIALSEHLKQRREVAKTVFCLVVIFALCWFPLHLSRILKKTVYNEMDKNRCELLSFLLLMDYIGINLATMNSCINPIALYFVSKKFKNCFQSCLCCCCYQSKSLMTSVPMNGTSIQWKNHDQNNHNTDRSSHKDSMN

[2] = DRUGMATRIX: GABAA, Muscimol, Central radioligand binding (ligand: [3H] Muscimol); type: cell membranes, Rattus norvegicus, Wistar, Brain, Membrane; conditions: Not Active = under 50% inhibition at 10 µM
[3] = DRUGMATRIX: Leukotriene, BLT (LTB4) radioligand binding (ligand: [3H]LTB4); type: cell membranes, Membrane; conditions: u-937; Not Active = under 50% inhibition at 10 µM
[4] = biological target: T2, Angiotensin-converting enzyme (Oryctolagus cuniculus, UniProt P12822); assay: biochemical; type: tissue-based, Lung;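 note: enzymatic inhibition of angiotensin-converting enzyme measured with FAPGG as the substrate; in other assays of this panel Not Active means under 50% inhibition at 10 µM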
T2 sequence (P12822 whole entry): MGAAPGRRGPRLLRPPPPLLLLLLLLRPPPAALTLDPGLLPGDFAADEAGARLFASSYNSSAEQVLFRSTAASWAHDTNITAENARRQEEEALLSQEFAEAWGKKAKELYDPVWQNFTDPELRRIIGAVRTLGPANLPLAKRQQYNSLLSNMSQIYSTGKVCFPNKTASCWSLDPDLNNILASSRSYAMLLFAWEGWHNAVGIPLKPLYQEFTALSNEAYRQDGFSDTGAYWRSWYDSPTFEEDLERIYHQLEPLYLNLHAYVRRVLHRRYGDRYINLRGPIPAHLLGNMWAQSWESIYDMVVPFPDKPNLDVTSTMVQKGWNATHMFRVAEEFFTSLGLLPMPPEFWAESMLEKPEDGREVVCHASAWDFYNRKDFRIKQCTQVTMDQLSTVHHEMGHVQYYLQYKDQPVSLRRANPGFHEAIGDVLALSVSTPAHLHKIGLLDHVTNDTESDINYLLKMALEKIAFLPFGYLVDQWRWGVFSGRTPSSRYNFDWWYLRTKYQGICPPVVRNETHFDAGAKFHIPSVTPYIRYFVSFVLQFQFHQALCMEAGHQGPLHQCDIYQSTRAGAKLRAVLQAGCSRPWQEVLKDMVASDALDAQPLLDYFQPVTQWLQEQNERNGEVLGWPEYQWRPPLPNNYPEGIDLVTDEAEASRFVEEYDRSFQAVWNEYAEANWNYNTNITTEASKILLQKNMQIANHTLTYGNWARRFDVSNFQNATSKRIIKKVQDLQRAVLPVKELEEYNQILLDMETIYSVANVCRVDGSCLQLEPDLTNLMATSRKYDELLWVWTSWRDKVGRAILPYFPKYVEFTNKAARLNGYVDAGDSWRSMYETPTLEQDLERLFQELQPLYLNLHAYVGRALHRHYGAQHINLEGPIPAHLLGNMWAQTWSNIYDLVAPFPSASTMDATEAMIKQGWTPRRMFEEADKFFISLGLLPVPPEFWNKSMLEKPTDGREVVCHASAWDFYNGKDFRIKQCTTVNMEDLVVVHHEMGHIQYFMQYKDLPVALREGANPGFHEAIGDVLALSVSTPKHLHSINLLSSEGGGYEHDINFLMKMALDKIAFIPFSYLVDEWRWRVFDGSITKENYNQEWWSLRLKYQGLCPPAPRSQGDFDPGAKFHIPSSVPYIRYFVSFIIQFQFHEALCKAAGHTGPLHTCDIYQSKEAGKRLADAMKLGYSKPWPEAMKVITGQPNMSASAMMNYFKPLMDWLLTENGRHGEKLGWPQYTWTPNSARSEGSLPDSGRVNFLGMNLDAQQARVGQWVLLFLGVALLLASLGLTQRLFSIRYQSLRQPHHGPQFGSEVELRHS

[5] = biological target: Mitogen-activated protein kinase 14 (Homo sapiens, UniProt Q16539); parameters: species or system Escherichia coli;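 note: inhibition of p38alpha enzyme activity in a biochemical kinase assay, with myelin basic protein serving as substrate; in other assays of this panel Not Active means under 50% inhibition at 10 µM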
Mitogen-activated protein kinase 14, sequence (Q16539 whole entry): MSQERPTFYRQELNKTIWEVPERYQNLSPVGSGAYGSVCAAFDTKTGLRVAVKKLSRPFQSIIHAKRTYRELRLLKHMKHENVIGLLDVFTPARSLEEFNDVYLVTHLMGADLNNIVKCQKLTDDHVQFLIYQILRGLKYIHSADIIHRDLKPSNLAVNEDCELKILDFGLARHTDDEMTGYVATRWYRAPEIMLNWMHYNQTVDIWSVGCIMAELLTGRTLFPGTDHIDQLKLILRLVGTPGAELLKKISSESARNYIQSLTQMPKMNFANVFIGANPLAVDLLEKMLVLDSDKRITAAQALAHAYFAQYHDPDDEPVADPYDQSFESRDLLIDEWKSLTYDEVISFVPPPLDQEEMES

Acetylcholinesterase = Acetylcholinesterase (Homo sapiens, UniProt P22303); assay: DRUGMATRIX: Acetylcholinesterase enzyme inhibition (substrate: acetylthiocholine); type: cell-based, HEK293; conditions: Not Active = under 50% inhibition at 10 µM
Acetylcholinesterase, sequence (P22303 whole entry): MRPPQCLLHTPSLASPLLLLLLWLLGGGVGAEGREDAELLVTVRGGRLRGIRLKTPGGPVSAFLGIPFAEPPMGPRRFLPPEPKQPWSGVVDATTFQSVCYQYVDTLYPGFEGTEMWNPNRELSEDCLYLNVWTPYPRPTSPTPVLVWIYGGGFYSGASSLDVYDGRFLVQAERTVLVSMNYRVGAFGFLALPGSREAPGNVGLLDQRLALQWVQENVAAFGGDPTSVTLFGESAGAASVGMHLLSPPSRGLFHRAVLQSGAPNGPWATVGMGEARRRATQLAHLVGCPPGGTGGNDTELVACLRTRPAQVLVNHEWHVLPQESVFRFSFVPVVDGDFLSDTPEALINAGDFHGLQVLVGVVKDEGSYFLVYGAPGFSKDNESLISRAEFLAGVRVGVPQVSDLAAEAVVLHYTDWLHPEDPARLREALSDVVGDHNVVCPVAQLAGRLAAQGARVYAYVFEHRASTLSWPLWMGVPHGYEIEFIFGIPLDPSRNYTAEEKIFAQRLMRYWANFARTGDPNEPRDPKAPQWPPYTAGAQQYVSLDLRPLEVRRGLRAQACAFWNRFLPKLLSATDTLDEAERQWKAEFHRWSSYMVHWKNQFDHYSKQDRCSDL

Beta-1 adrenergic receptor, sequence (P08588 whole entry): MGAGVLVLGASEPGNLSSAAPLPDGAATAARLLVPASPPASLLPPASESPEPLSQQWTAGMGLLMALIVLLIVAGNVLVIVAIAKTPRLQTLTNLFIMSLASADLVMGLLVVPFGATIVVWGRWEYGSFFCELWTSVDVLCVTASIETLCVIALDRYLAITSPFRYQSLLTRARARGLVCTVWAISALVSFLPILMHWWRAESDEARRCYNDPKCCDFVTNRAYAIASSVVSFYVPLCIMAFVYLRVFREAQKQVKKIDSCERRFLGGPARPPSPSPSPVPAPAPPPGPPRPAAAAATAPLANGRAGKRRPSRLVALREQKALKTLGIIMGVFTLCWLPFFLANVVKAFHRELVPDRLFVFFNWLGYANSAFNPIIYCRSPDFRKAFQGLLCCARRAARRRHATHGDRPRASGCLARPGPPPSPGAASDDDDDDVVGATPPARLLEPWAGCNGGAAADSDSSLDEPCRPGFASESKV

C#C[C@]1(O)CC[C@H]2[C@@H]3CCC4=CC(=O)CC[C@@H]4[C@H]3CC[C@@]21C [NORETHINDRONE]
IC50 [1]: Not Active | IC50 (Endothelin-1 receptor): Not Active | IC50 [2]: Not Active | Ki [2]: Not Active | IC50 [3]: Not Active | Ki [3]: Not Active | IC50 [4]: Not Active | IC50 [5]: Not Active | IC50 (Acetylcholinesterase; hek293): Not Active

O=C(Nc1ccc(Cl)c(Cl)c1)c1cc(Cl)cc(Cl)c1O [3,3',4',5-TETRACHLOROSALICYLANILIDE]
IC50 [1]: Not Active | IC50 (Endothelin-1 receptor): Not Active | IC50 [2]: Not Active | Ki [2]: Not Active | IC50 [3]: Not Active | Ki [3]: Not Active | IC50 [4]: Not Active | IC50 ([5]; read-out: IC50): 2.18 µM | IC50 (Acetylcholinesterase; hek293): Not Active

CC1(COc2ccc(CC3SC(=O)NC3=O)cc2)CCCCC1 (configuration not stated) [CIGLITAZONE]
IC50 [1]: Not Active | IC50 (Endothelin-1 receptor): Not Active | IC50 [2]: Not Active | Ki [2]: Not Active | IC50 [3]: Not Active | Ki [3]: Not Active | IC50 [4]: Not Active | IC50 [5]: Not Active | IC50 (Acetylcholinesterase; read-out: IC50): 15 µM

COc1cc([C@@H]2c3cc4c(cc3[C@H](O)[C@H]3COC(=O)[C@H]23)OCO4)cc(OC)c1OC [PODOFILOX]
IC50 [1]: Not Active | IC50 (Endothelin-1 receptor): Not Active | IC50 [2]: Not Active | Ki [2]: Not Active | IC50 [3]: Not Active | Ki [3]: Not Active | IC50 [4]: Not Active | IC50 [5]: Not Active | IC50 (Acetylcholinesterase; hek293): Not Active

COC(=O)C[C@](O)(CCC(C)(C)O)C(=O)O[C@@H]1C(OC)=C[C@]23CCCN2CCc2cc4c(cc2[C@H]13)OCO4 [HARRINGTONINE]
IC50 [1]: Not Active | IC50 (Endothelin-1 receptor): Not Active | IC50 [2]: Not Active | Ki [2]: Not Active | IC50 [3]: Not Active | Ki [3]: Not Active | IC50 [4]: Not Active | IC50 [5]: Not Active | IC50 (Acetylcholinesterase; hek293): Not Active

CCCCCCNC(=O)n1cc(F)c(=O)[nH]c1=O [CARMOFUR]
IC50 [1]: Not Active | IC50 (Endothelin-1 receptor): Not Active | IC50 [2]: Not Active | Ki [2]: Not Active | IC50 [3]: Not Active | Ki [3]: Not Active | IC50 [4]: Not Active | IC50 [5]: Not Active | IC50 (Acetylcholinesterase; hek293): Not Active

O=c1[nH]cnc2c1ncn2[C@H]1CC[C@@H](CO)O1 [DIDANOSINE]
IC50 [1]: Not Active | IC50 (Endothelin-1 receptor): Not Active | IC50 [2]: Not Active | Ki [2]: Not Active | IC50 [3]: Not Active | Ki [3]: Not Active | IC50 [4]: Not Active | IC50 [5]: Not Active | IC50 (Acetylcholinesterase; hek293): Not Active

O=C(O)CO [GLYCOLIC ACID]
IC50 [1]: Not Active | IC50 (Endothelin-1 receptor): Not Active | IC50 [2]: Not Active | Ki [2]: Not Active | IC50 [3]: Not Active | Ki [3]: Not Active | IC50 [4]: Not Active | IC50 [5]: Not Active | IC50 (Acetylcholinesterase; hek293): Not Active

CC(C)Cc1ccc([C@H](C)C(=O)O)cc1 [DEXIBUPROFEN]
IC50 [1]: Not Active | IC50 (Endothelin-1 receptor): Not Active | IC50 [2]: Not Active | Ki [2]: Not Active | IC50 [3]: Not Active | Ki [3]: Not Active | IC50 [4]: Not Active | IC50 [5]: Not Active | IC50 (Acetylcholinesterase; hek293): Not Active

CC(C)(C#N)c1cc(Cn2cncn2)cc(C(C)(C)C#N)c1 [ANASTROZOLE]
IC50 [1]: Not Active | IC50 (Endothelin-1 receptor): Not Active | IC50 [2]: Not Active | Ki [2]: Not Active | IC50 [3]: Not Active | Ki [3]: Not Active | IC50 [4]: Not Active | IC50 [5]: Not Active | IC50 (Acetylcholinesterase; hek293): Not Active

O=C1c2ccccc2C(=O)C1c1ccccc1 [PHENINDIONE]
IC50 [1]: Not Active | IC50 (Endothelin-1 receptor): Not Active | IC50 [2]: Not Active | Ki [2]: Not Active | IC50 [3]: Not Active | Ki [3]: Not Active | IC50 [4]: Not Active | IC50 [5]: Not Active | IC50 (Acetylcholinesterase; hek293): Not Active

NC(=O)NC(=O)Cc1ccccc1 [PHENACEMIDE]
IC50 [1]: Not Active | IC50 (Endothelin-1 receptor): Not Active | IC50 [2]: Not Active | Ki [2]: Not Active | IC50 [3]: Not Active | Ki [3]: Not Active | IC50 [4]: Not Active | IC50 [5]: Not Active | IC50 (Acetylcholinesterase; hek293): Not Active

O=C(NCCN1CCOCC1)c1ccc(Cl)cc1 [MOCLOBEMIDE]
IC50 [1]: Not Active | IC50 (Endothelin-1 receptor): Not Active | IC50 [2]: Not Active | Ki [2]: Not Active | IC50 [3]: Not Active | Ki [3]: Not Active | IC50 [4]: Not Active | IC50 [5]: Not Active | IC50 (Acetylcholinesterase; hek293): Not Active

OC[C@H]1O[C@@H]2O[C@H]3[C@H](O)[C@@H](O)[C@@H](O[C@H]4[C@H](O)[C@@H](O)[C@@H](O[C@H]5[C@H](O)[C@@H](O)[C@@H](O[C@H]6[C@H](O)[C@@H](O)[C@@H](O[C@H]7[C@H](O)[C@@H](O)[C@@H](O[C@H]1[C@H](O)[C@H]2O)O[C@@H]7CO)O[C@@H]6CO)O[C@@H]5CO)O[C@@H]4CO)O[C@@H]3CO [ALFADEX]
IC50 [1]: Not Active | IC50 (Endothelin-1 receptor): Not Active | IC50 [2]: Not Active | Ki [2]: Not Active | IC50 [3]: Not Active | Ki [3]: Not Active | IC50 [4]: Not Active | IC50 [5]: Not Active | IC50 (Acetylcholinesterase; hek293): Not Active

ClC1=C(Cl)[C@]2(Cl)[C@@H]3[C@@H]4C[C@@H]([C@H]5O[C@@H]45)[C@@H]3[C@@]1(Cl)C2(Cl)Cl [DIELDRIN]
IC50 [1]: Not Active | IC50 (Endothelin-1 receptor): Not Active | IC50 [2]: Not Active | Ki [2]: Not Active | IC50 [3]: Not Active | Ki [3]: Not Active | IC50 [4]: Not Active | IC50 ([5]; read-out: IC50): 43.2 µM | IC50 (Acetylcholinesterase; hek293): Not Active

O=c1[nH]c2ccccc2c2ccccc12
IC50 [1]: Not Active | IC50 (Endothelin-1 receptor): Not Active | IC50 [2]: Not Active | Ki [2]: Not Active | IC50 [3]: Not Active | Ki [3]: Not Active | IC50 [4]: Not Active | IC50 [5]: Not Active | IC50 (Acetylcholinesterase; hek293): Not Active

CCC1(c2ccccc2)C(=O)NC(=O)NC1=O [PHENOBARBITAL]
IC50 [1]: Not Active | IC50 (Endothelin-1 receptor): Not Active | IC50 [2]: Not Active | Ki [2]: Not Active | IC50 [3]: Not Active | Ki [3]: Not Active | IC50 [4]: Not Active | IC50 [5]: Not Active | IC50 (Acetylcholinesterase; hek293): Not Active

Nc1ccc(C(=O)O)c(O)c1 [AMINOSALICYLIC ACID]
IC50 [1]: Not Active | IC50 (Endothelin-1 receptor): Not Active | IC50 [2]: Not Active | Ki [2]: Not Active | IC50 [3]: Not Active | Ki [3]: Not Active | IC50 [4]: Not Active | IC50 [5]: Not Active | IC50 (Acetylcholinesterase; hek293): Not Active
